From patent US11434242B2, “Dopamine-b-hydroxylase inhibitors” (BIAL-PORTELA & Cª, S.A., priority 2017, dated 2022)
Marks after values point to notes of the source that are not given here.

Biological target: T1, Dopamine beta hydroxylase (Homo sapiens, UniProt P09172)
T1 construct: 125 μl of plasma; tissue Instituto Português do Sangue Transplantação; host or cells: human plasma from healthy donors
T1 sequence (P09172 40-617 limits assumed): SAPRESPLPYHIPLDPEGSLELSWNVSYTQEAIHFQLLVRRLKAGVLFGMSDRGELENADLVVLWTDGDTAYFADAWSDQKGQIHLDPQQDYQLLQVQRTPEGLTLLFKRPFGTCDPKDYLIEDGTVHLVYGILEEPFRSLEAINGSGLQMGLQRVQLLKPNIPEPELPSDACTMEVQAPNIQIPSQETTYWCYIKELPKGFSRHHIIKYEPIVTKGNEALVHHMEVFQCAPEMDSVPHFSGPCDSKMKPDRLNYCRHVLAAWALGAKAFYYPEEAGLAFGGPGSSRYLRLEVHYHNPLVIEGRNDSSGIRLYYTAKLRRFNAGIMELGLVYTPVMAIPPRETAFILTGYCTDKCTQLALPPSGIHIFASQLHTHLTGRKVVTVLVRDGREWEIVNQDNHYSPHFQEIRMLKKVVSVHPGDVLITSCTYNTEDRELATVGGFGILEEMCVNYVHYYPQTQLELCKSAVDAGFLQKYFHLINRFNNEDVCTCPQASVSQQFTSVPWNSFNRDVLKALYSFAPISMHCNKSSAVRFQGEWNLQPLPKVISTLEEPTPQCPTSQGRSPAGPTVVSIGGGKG
Test: Dopamine beta hydroxylase activity in human plasma
Format: biochemical
Details: for Plasma (1 μM), activity in % of control: inhibitor 1 μM
How it was run: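 Octopamine production from tyramine over 45 min at 37° C, measured photometrically at 330 nm after SCX extraction and periodate oxidation against an octopamine standard curve, indicates plasma DβH activity. Compounds tested at final 10, 100 and 1000 nM in human plasma, pH 5.0 cofactor buffer, 10 min preincubation; results as % of control.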

Row | Plasma (0.01 μM), activity in % of control (inhibitor 0.01 μM) | Plasma (0.1 μM), activity in % of control (inhibitor 0.1 μM) | Plasma (1 μM), activity in % of control | Plasma (0.01 μM), activity in % of control, re-test (asterisked) (inhibitor 0.01 μM, re-tested under the same experimental conditions, asterisked data believed to be correct) | Plasma (0.1 μM), activity in % of control, re-test (asterisked) (inhibitor 0.1 μM, re-tested under the same experimental conditions, asterisked data believed to be correct) | SMILES
1 | 84.3 % of control | 48.4 % of control | – | – | – | Cn1c(CC(=O)NC2CCOCC2)c2n(c1=S)C[C@@H](c1c(F)ccc(F)c1F)C2 [Example 299, (R)-2-(2-methyl-6-(2,3,6-trifluorophenyl)-3-thioxo-2,5,6,7-tetrahydro-3H-pyrrolo[1,2-c]imidazol-1-yl)-N-(tetrahydro-2H-pyran-4-yl)acetamide]
2 | 132.5 % of control | 86.2 % of control | – | – | – | O=C(Cc1[nH]c(=S)n2c1C[C@H](c1c(F)ccc(Br)c1F)C2)NC1CCCC1CO (stereo partly drawn) [Example 120, 2-((R)-6-(3-bromo-2,6-difluorophenyl)-3-thioxo-2,5,6,7-tetrahydro-3H-pyrrolo[1,2-c]imidazol-1-yl)-N-(2-(hydroxymethyl)cyclopentyl)acetamide]
3 | 84.6 % of control | 59.4 % of control | – | – | – | Cl.Cn1c(CCNCC2CCOCC2)c2n(c1=S)C[C@@H](c1c(F)ccc(F)c1F)C2 [Example 477, (R)-2-methyl-1-(2-(((tetrahydro-2H-pyran-4-yl)methyl)amino)ethyl)-6-(2,3,6-trifluorophenyl)-2,5,6,7-tetrahydro-3H-pyrrolo[1,2-c]imidazole-3-thione hydrochloride]
4 | 28.9 % of control | 2.8 % of control | – | – | – | Cn1c(CC(=O)NC2CCOCC2)c2n(c1=S)C[C@H](c1c(F)ccc(Br)c1F)C2 [Example 406, (S)-2-(6-(3-bromo-2,6-difluorophenyl)-2-methyl-3-thioxo-2,5,6,7-tetrahydro-3H-pyrrolo[1,2-c]imidazol-1-yl)-N-(tetrahydro-2H-pyran-4-yl)acetamide]
5 | – | 81.0 % of control | 19.8 % of control | – | – | O=C(O)Cc1[nH]c(=S)n2c1C[C@H](c1c(F)cccc1F)C2 [Example 18, (R)-2-(6-(2,6-difluorophenyl)-3-thioxo-2,5,6,7-tetrahydro-3H-pyrrolo[1,2-c]imidazol-1-yl)acetic Acid]
6 | – | 22.7 % of control | 0.5 % of control | – | – | CCCNC(=O)Cc1[nH]c(=S)n2c1C[C@@H](c1c(F)ccc(Br)c1F)C2 [Example 97, (S)-2-(6-(3-bromo-2,6-difluorophenyl)-3-thioxo-2,5,6,7-tetrahydro-3H-pyrrolo[1,2-c]imidazol-1-yl)-N-propylacetamide]
7 | 88.3 % of control | 58.1 % of control | – | – | – | CS(=O)(=O)C1CCN(C(=O)Cc2[nH]c(=S)n3c2C[C@H](c2c(F)ccc(Br)c2F)C3)C1 (stereo partly drawn) [Example 135, 2-((R)-6-(3-bromo-2,6-difluorophenyl)-3-thioxo-2,5,6,7-tetrahydro-3H-pyrrolo[1,2-c]imidazol-1-yl)-1-(3-(methylsulfonyl)pyrrolidin-1-yl)ethan-1-one]
8 | 99.2 % of control | 22.3 % of control | – | – | – | Fc1ccc(Br)cc1[C@]12C[C@H]1c1c(CCNCC(F)(F)F)[nH]c(=S)n1C2 [Example 180, (5aS,6aR)-5a-(5-bromo-2-fluorophenyl)-1-(2-((2,2,2-trifluoroethyl)amino)ethyl)-5,5a,6,6a-tetrahydrocyclopropa[3,4]pyrrolo[1,2-c]imidazole-3(2H)-thione]
9 | – | 60.7 % of control | 9.8 % of control | – | – | O=C(Cc1[nH]c(=S)n2c1C[C@H](c1c(F)c(F)cc(F)c1F)C2)NC1CCC1 [Example 80, (R)—N-cyclobutyl-2-(6-(2,3,5,6-tetrafluorophenyl)-3-thioxo-2,5,6,7-tetrahydro-3H-pyrrolo[1,2-c]imidazol-1-yl)acetamide]
10 | 86.6 % of control | 28.9 % of control | – | – | – | Cn1c(CC(=O)NC2CCCC2)c2n(c1=S)C[C@@]1(c3cc(Cl)ccc3F)C[C@@H]21 [Example 273, 2-((5aS,6aR)-5a-(5-chloro-2-fluorophenyl)-2-methyl-3-thioxo-2,3,5,5a,6,6a-hexahydrocyclopropa[3,4]pyrrolo[1,2-c]imidazol-1-yl)-N-cyclopentylacetamide]
11 | – | 29.0 % of control | 2.4 % of control | – | – | O=C(Cc1[nH]c(=S)n2c1[C@@H]1C[C@]1(c1cc(Br)ccc1F)C2)N1CCN(c2ccccn2)CC1 [Example 147, 2-((5aS,6aR)-5a-(5-bromo-2-fluorophenyl)-3-thioxo-2,3,5,5a,6,6a-hexahydrocyclopropa[3,4]pyrrolo[1,2-c]imidazol-1-yl)-1-(4-(pyridin-2-yl)piperazin-1-yl)ethan-1-one]

Further lines, the molecule ahead of its results:

Row | SMILES | Plasma (0.01 μM), activity in % of control (inhibitor 0.01 μM) | Plasma (0.1 μM), activity in % of control (inhibitor 0.1 μM) | Plasma (1 μM), activity in % of control | Plasma (0.01 μM), activity in % of control, re-test (asterisked) (inhibitor 0.01 μM, re-tested under the same experimental conditions, asterisked data believed to be correct) | Plasma (0.1 μM), activity in % of control, re-test (asterisked) (inhibitor 0.1 μM, re-tested under the same experimental conditions, asterisked data believed to be correct)
12 | CN(C)CCCNC(=O)Cc1[nH]c(=S)n2c1[C@@H]1C[C@]1(c1cc(Br)ccc1F)C2.Cl [Example 146, 2-((5aS,6aR)-5a-(5-bromo-2-fluorophenyl)-3-thioxo-2,3,5,5a,6,6a-hexahydrocyclopropa[3,4]pyrrolo[1,2-c]imidazol-1-yl)-N-(3-(dimethylamino)propyl)acetamide hydrochloride] | – | 13.8 % of control | 0.9 % of control | – | –
13 | Cn1c(CC(=O)NCC(F)(F)F)c2n(c1=S)C[C@@]1(c3cc(Cl)ccc3F)C[C@@H]21 [Example 300, 2-((5aS,6aR)-5a-(5-chloro-2-fluorophenyl)-2-methyl-3-thioxo-2,3,5,5a,6,6a-hexahydrocyclopropa[3,4]pyrrolo[1,2-c]imidazol-1-yl)-N-(2,2,2-trifluoroethyl)acetamide] | 57.0 % of control | 10.9 % of control | – | – | –
14 | CN(C(=O)Cc1c2n(c(=S)n1C)C[C@@H](c1c(F)cccc1F)C2)C1COC1 [Example 448, (R)-2-(6-(2,6-difluorophenyl)-2-methyl-3-thioxo-2,5,6,7-tetrahydro-3H-pyrrolo[1,2-c]imidazol-1-yl)-N-methyl-N-(oxetan-3-yl)acetamide] | 93.3 % of control | 65.3 % of control | – | – | –
15 | O=C(Cc1[nH]c(=S)n2c1C[C@@H](c1c(F)ccc(Cl)c1F)C2)N1CCOCC1 [Example 363, (S)-2-(6-(3-chloro-2,6-difluorophenyl)-3-thioxo-2,5,6,7-tetrahydro-3H-pyrrolo[1,2-c]imidazol-1-yl)-1-morpholinoethan-1-one] | 89.5 % of control | 20.8 % of control | – | – | –
16 | Cn1c(CC(=O)NC2CCOCC2)c2n(c1=S)C[C@@]1(c3cc(Br)ccc3F)C[C@@H]21 [Example 314, 2-((5aS,6aR)-5a-(5-bromo-2-fluorophenyl)-2-methyl-3-thioxo-2,3,5,5a,6,6a-hexahydrocyclopropa[3,4]pyrrolo[1,2-c]imidazol-1-yl)-N-(tetrahydro-2H-pyran-4-yl)acetamide] | 80.2 % of control | 34.8 % of control | – | 41.9* % of control | 1.4* % of control
17 | CN(C(=O)Cc1c2n(c(=S)n1C)C[C@H](c1c(F)ccc(Cl)c1F)C2)[C@@H]1CCOC1 [Example 399, 2-((S)-6-(3-chloro-2,6-difluorophenyl)-2-methyl-3-thioxo-2,5,6,7-tetrahydro-3H-pyrrolo[1,2-c]imidazol-1-yl)-N-methyl-N—((R)-tetrahydrofuran-3-yl)acetamide] | 40.6 % of control | 4.0 % of control | – | – | –
18 | CS(=O)(=O)NC(=O)Cc1[nH]c(=S)n2c1C[C@H](c1cc(F)ccc1F)C2 [Example 24, (R)-2-(6-(2,5-difluorophenyl)-3-thioxo-2,5,6,7-tetrahydro-3H-pyrrolo[1,2-c]imidazol-1-yl)-N-(methylsulfonyl)acetamide] | – | 100.2 % of control | 45.6 % of control | – | –
19 | CN(Cc1cccnc1)C(=O)Cc1[nH]c(=S)n2c1C[C@@H](c1c(F)ccc(Cl)c1F)C2 [Example 134, (S)-2-(6-(3-chloro-2,6-difluorophenyl)-3-thioxo-2,5,6,7-tetrahydro-3H-pyrrolo[1,2-c]imidazol-1-yl)-N-methyl-N-(pyridin-3-ylmethyl)acetamide] | 24.9 % of control | 3.2 % of control | – | – | –
20 | CN(C(=O)Cc1[nH]c(=S)n2c1[C@@H]1C[C@]1(c1c(F)ccc(Cl)c1F)C2)C1CCOCC1 [Example 381, 2-((5aS,6aR)-5a-(3-chloro-2,6-difluorophenyl)-3-thioxo-2,3,5,5a,6,6a-hexahydrocyclopropa[3,4]pyrrolo[1,2-c]imidazol-1-yl)-N-methyl-N-(tetrahydro-2H-pyran-4-yl)acetamide] | 30.0 % of control | 3.2 % of control | – | – | –
